Key:
UT-B [1] = biological target: T1, UT-B (Mus musculus, UniProt Q8VHL0); assay: Osmotic water permeability, AQP1-null mouse RBCs (UT-B-facilitated water transport); format: cell-based; settings: 10° C., 250-mM sucrose gradient
T1 construct: the indicator cells are red blood cells that endogenously express the UT-B urea transporter; endogenous in cells; host or cells: mouse red blood cells (CD1 background; wild-type for A4, AQP1-null for A10)
T1 sequence (Q8VHL0 1-384): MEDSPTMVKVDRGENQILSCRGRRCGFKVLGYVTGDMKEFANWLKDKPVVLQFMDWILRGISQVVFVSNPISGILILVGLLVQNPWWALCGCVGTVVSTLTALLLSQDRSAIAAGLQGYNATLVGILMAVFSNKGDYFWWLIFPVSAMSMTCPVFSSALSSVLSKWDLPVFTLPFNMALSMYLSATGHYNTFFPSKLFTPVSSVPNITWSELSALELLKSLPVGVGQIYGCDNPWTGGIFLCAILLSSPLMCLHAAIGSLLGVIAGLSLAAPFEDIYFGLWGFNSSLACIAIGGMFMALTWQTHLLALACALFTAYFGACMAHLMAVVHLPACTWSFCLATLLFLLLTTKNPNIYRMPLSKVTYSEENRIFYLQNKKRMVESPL
Description: (§1) RBC urea and water permeabilities were assayed by stopped-flow light scattering using a Hi-Tech Sf-51 instrument (Wiltshire, UK). For measurement of urea permeability, dilutions of whole blood (human or mouse; see Example 1) in PBS (hematocrit: approximately 0.5%) were incubated with test compounds for 5 min and then subjected to a 250-mM inwardly directed gradient of urea. After an initial osmotic shrinking phase, the kinetics of increasing cell volume caused by urea influx were measured as the time-course of 90° scattered light intensity at 530 nm, with increasing cell volume resulting in reduced scattered light intensity. As a positive control, 0.7 mM phloretin was added to the RBC suspension prior to stopped-flow experiments. Measurements of water permeability were carried out similarly, with sucrose (cell-impermeant) used instead of urea to establish a 250-mM osmotic gradient. As a positive control, HgCl2 (0.3 mM) was added to the RBC suspension prior to stopped-flow measurements. […]
This example describes chemical knock-out of UT-B by UT-B inhibitors in RBCs and the effect on UT-B-facilitated water transport. […] Osmotic water permeability was measured by stopped-flow light scattering in RBCs from wild-type and AQP1-null mice as shown in FIG. 8A. […]

mouse UT-B = biological target: T2, mouse UT-B (Mus musculus, UniProt Q8VHL0); assay: Stopped-flow light scattering, mouse RBCs (N-methylurea gradient); format: cell-based
T2 construct: the indicator cells are red blood cells that endogenously express the UT-B urea transporter; endogenous in cells; host or cells: mouse red blood cells (CD1 background; wild-type for A4, AQP1-null for A10)
T2 sequence (Q8VHL0 1-384): T1 sequence (Q8VHL0 1-384)
Description: as §1, with “measurements. Osmotic water permeability coefficients (Pf) were computed from light scattering data as described (van Hoek et al., J Biol. Chem. 267:18267-69 (1992)).” for “measurements.”

RBCs from wild-type mice = assay: Osmotic water permeability, RBCs from wild-type mice (stopped-flow); format: cell-based, mouse; settings: 10° C., 250-mM sucrose gradient
Description: (§2) RBC urea and water permeabilities were assayed by stopped-flow light scattering using a Hi-Tech Sf-51 instrument (Wiltshire, UK). For measurement of urea permeability, dilutions of whole blood (human or mouse; see Example 1) in PBS (hematocrit: approximately 0.5%) were incubated with test compounds for 5 min and then subjected to a 250-mM inwardly directed gradient of urea. After an initial osmotic shrinking phase, the kinetics of increasing cell volume caused by urea influx were measured as the time-course of 90° scattered light intensity at 530 nm, with increasing cell volume resulting in reduced scattered light intensity. As a positive control, 0.7 mM phloretin was added to the RBC suspension prior to stopped-flow experiments. Measurements of water permeability were carried out similarly, with sucrose (cell-impermeant) used instead of urea to establish a 250-mM osmotic gradient. As a positive control, HgCl2 (0.3 mM) was added to the RBC suspension prior to stopped-flow measurements. Osmotic water permeability coefficients (Pf) were computed from light scattering data as described (van Hoek et al., J Biol. Chem. 267:18267-69 (1992)).
This example describes chemical knock-out of UT-B by UT-B inhibitors in RBCs and the effect on UT-B-facilitated water transport. […] Osmotic water permeability was measured by stopped-flow light scattering in RBCs from wild-type and AQP1-null mice as shown in FIG. 8A. […] AQP1-null RBCs had greater than 5-fold reduced Pf compared to wild-type RBCs.

UT-B [2] = biological target: T3, UT-B (Homo sapiens, UniProt Q13336); assay: Stopped-flow light scattering, urea permeability of human RBCs; format: cell-based; design: a red blood cell (i.e., erythrocyte), which endogenously expresses the urea transporter UT-B; endogenous in cells; host or cells: human red blood cells (whole blood, single donor); settings: for inhibition of urea transport, inhibitor only in urea-containing solution (sidedness): external exposure at time of stopped-flow, 0.1 μM ureainh-101, 0.2 μM ureainh-302; for reversibility of inhibition after washing RBCs: washed after 10 min incubation
T3 sequence (Q13336 1-389): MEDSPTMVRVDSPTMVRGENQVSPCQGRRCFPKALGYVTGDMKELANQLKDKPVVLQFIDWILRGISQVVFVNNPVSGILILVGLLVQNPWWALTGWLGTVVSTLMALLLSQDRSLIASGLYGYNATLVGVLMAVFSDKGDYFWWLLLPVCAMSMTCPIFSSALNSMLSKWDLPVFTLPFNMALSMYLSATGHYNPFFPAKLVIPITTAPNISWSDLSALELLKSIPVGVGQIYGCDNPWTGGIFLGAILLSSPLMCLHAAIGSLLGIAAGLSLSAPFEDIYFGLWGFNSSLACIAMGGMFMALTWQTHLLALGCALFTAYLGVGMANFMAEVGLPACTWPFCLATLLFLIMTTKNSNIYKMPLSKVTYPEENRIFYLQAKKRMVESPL
Description: as §2
After repeating the 96-well plate RBC lysis assay to confirm compound activity (see Example 2), bona fide urea transport inhibition was determined by stopped-flow light scattering from the kinetics of urea influx (RBC swelling) in response to an inwardly directed urea gradient. Rapid mixing of an RBC suspension with a hyperosmolar solution containing excess 250 mM urea produced rapid cell shrinking due to osmotic water efflux, followed by cell swelling as urea (and water) influx occurred.
To determine EC50 values for urea transport inhibition directly, RBC urea transport was measured by stopped-flow light scattering using a non-saturating concentration of extracellular urea (to avoid possible competition effects). EC50 for inhibition of RBC urea transport was determined independently by comparing stopped-flow light scattering curves to a model of cell shrinking-swelling.
For stopped-flow experiments, a 100-mM gradient of urea (for human RBCs) or N-methylurea (for mouse RBCs) was used to minimize competition effects (apparent urea and N-methylurea affinities at 23° C. are approximately 200 and approximately 100 mM, respectively) (Mayrand et al., J Gen Physiol. 81:221-37 (1983)). N-methylurea, with greater than 2-fold slower RBC permeability than urea, was used in mouse studies to better resolve overlapping water and urea transport kinetics. Dose-response data were also collected for human RBCs using a high concentration of 1 M urea to distinguish between competitive vs. non-competitive inhibitor binding.
The two coupled differential equations describing water efflux and solute influx in response to externally added urea or methylurea were numerically integrated using the forward Euler method (Δt=0.01 s) to reproduce the biphasic changes in cell volume observed experimentally. Computations that were performed using the smaller time step (Δt=0.001 s) gave similar results, confirming the adequacy of the 0.01 s time step. Water flux, Jv (in cm^3/s), across erythrocyte membranes is represented by the following equation: Jv=−Pf·S·vw·[(Ie−Ic(i))+(Ue−Uc(i))]; solute flux, Js (in mol/s), is represented by the following equation: Ps·S·(Ue−Uc(i)). Permeability coefficients (Pf and Ps) are expressed in units of cm/s, cell surface area (S) in cm^2, extracellular (e) and cellular (c) concentrations of impermeant (I) and urea/methylurea (U) solute in mol/cm^3, and vw is […]. Initial conditions were Ie=Ic(0)=2.9×10^−4 mol/cm^3, Ue=10^−4 mol/cm^3, and Uc(0)=0. […]

| effect on water permeability in AQP1-null RBCs (UT-B [1]) | inhibitory potencies against mouse UT-B (mouse UT-B) | inhibition at 0.1 µM (UT-B [2]; 10 min pre-incubation, 0.1 μM ureainh-101, 0.4 μM ureainh-302, read-out: transport inhibition after pre-incubation) | inhibition of urea transport, inhibitor only in urea-containing solution (sidedness) (UT-B [2]) | reversibility of inhibition after washing RBCs (UT-B [2]) | concentration dependence of inhibition of urea permeability by externally added inhibitor (UT-B [2]; externally added, 0.05-0.2 μM) | Compound | effect on water transport in RBCs from wild-type mice (RBCs from wild-type mice) |
| --- | --- | --- | --- | --- | --- | --- | --- |
| further inhibited water permeability | good inhibitory potencies | > 95% | did not inhibit urea transport | fully reversible inhibition | – | NC(=O)CSc1oc(-c2ccccc2)nc1S(=O)(=O)c1ccc(Br)cc1 [ureainh-101, 2-(4-(4-bromophenylsulfonyl)-2-phenyloxazol-5-ylthio)acetamide] | little effect |
| further inhibited water permeability | good inhibitory potencies | – | sizable effect | fully reversible inhibition | concentration-dependent | Cc1ccc(Nc2nnc(-c3ccc(C(N)=O)cc3)c3ccccc23)cc1 [ureainh-302] | little effect |
